# What was measured:
# MGLUR8 = assay: Cell-based mGluR activity assay; design: species or system human; conditions: 10 µM B16
# Description: (§1) Tachykinin, ghrelin, and calcium-sensing receptor activity were measured using a cell-based Ca flux assay by Multispan, Inc. (Hayward, California). Cholescystokinin A and B receptors were assayed for effects on cAMP production, and nicotinic acid receptor activity was measured in a cell-based assay of forskolin-stimulated cAMP production by Multispan, Inc. […], PP2A phosphatase activity assays were performed by CEREP (Celle l'Evescault, France) using PP2A from human erythrocytes. Phospholipase C from Bacillus cereus was assayed by CEREP, Inc. using glycero-phosphatidyl ethanolamine as a substrate, monitoring diacyl glycerol production. Radioligand binding assays for PPAR-α, γ, δ and the androgen receptor were performed by CEREP, Inc. CARNA Biosciences (Kobe, Japan) performed in vitro kinase activity assays using recombinant catalytic domains and measured phosphorylation of an Src-derived peptide for Flt-3 and phosphatidyl inositol for PI3KCA. Radioligand binding assays for the oxytocin receptor, D4 dopamine receptor, cannabinoid CB2 receptor, and angiotensin type I and II receptors were performed as described previously, as were cell-based activity assays for mGluR 1a, 2, 4, 5, 6, and 8 [60]–[62].
# Table S2. Activity of 10 µM B16 on human metabotropic glutamate receptors. […]
# C. elegans = test system: C. elegans; design: method as in earlier work; conditions: earlier phenotypic screen ref 11; cited from earlier work
# mglur-8 = target: T1, mglur-8 (Rattus norvegicus, UniProt P70579); assay: Cell-based mGluR-8 activity assay, CHO cells stimulated with 1 µM L-AP4, concentration response
# T1 construct: expressed in transfected cells; host or cells: CHO cells
# Description: as §1
# (§2) Supplementary file pbio.1001712.s001.tif: Figure S1 Dose-response measurements that validate SEA predictions for GPCRs. […]
# [1] = test system: mgl-2(tm355) mutant C. elegans; assay: Pharyngeal pumping assay, compound on high-feeding mutant; format: in vivo; conditions: to C. elegans mgl-2 (F45H11.4), homolog of human mGluR-8
# Description: (§3) Compounds at 1,000× stock concentrations (0.1–10 mM) in DMSO or an equal volume of DMSO were diluted in a suspension of E. coli OP-50 (100 µl of a 3× concentrated overnight culture in LB broth) and absorbed as a single drop onto 3.5 cm plates containing 2.5 ml of NGM agar forming a well-defined lawn of bacteria. For developmental exposures, 20–30 synchronized first larval stage C. elegans derived from alkaline hypochlorite treatment of gravid adults were applied to the preseeded plates and cultured until assay at mid-L4 stage (2 d, 20°C) or as day 1 gravid adults (3 d, 20°C). For naïve adult exposures, synchronized first larval stage animals were cultured on NGM-agar plates seeded with E. coli OP-50 for 3 d at 20°C, then transferred to assay plates, and pumping was assayed 1 to 16 h later. Comparisons between vehicle-treated and compound-treated animals were always performed between animals at the same developmental stage and same exposure time. Pharyngeal pumping was counted by live observation at 115–200× magnification using a stereo microscope and recorded at 10 s intervals using a manually controlled digital cell counter. Alternatively, C. elegans pumping was recorded for longer intervals (30–60 s) using bright-field time-lapse microscopy at 120× magnification with a 20 images per second acquisition rate. The resulting movies were analyzed manually at a playback rate of 10 images per second.
# (§4) Significance was determined by one-way ANOVA applying a Dunnett's posttest when comparing multiple treatments to a single control and a Bonferroni posttest when comparing the more than two treatments against one another. For pairwise nonrepeated measured comparisons, a student's t test was used. To express data as a percentage of control, the pumping rates of compound-treated animals were divided by the mean pumping rate of the DMSO-treated wild-type animals measured in the same experiment, unless indicated otherwise. Error bars on the control samples indicate the variation around that mean, which is utilized in all statistical calculations.
# (§5) The pumping rates are expressed as a percentage of the mutant’s pumping rate on DMSO, the vehicle control. p-values were calculated relative to DMSO treatment of each mutant by one-way ANOVA using Dunnett’s multiple comparison test.
# wild-type C. elegans = assay: Pharyngeal pumping assay; format: in vivo; conditions: for increase in pharyngeal pumping / exposure time after which the feeding elevating effect was notable: 10 µM; for increase in pharyngeal pumping: cultured 3 d from L1, long-term video (60 s) and short-term manual (10 s) measurements; for exposure time after which the feeding elevating effect was notable: naïve day 1 gravid adults; for effect on the pharyngeal pumping rate: 10 µM versus 0.1% DMSO; for EC50: Caenorhabditis elegans, read-out: EC50 of the dose-dependent increase in the pharyngeal pumping rate
# Description: as §3, §4
# MGLUR4 = target: T2, MGLUR4 (Homo sapiens, UniProt Q14833); assay: Cell-based mGluR activity assay; conditions: 10 µM B16
# T2 construct: expressed in transfected cells
# T2 sequence (Q14833 33-912): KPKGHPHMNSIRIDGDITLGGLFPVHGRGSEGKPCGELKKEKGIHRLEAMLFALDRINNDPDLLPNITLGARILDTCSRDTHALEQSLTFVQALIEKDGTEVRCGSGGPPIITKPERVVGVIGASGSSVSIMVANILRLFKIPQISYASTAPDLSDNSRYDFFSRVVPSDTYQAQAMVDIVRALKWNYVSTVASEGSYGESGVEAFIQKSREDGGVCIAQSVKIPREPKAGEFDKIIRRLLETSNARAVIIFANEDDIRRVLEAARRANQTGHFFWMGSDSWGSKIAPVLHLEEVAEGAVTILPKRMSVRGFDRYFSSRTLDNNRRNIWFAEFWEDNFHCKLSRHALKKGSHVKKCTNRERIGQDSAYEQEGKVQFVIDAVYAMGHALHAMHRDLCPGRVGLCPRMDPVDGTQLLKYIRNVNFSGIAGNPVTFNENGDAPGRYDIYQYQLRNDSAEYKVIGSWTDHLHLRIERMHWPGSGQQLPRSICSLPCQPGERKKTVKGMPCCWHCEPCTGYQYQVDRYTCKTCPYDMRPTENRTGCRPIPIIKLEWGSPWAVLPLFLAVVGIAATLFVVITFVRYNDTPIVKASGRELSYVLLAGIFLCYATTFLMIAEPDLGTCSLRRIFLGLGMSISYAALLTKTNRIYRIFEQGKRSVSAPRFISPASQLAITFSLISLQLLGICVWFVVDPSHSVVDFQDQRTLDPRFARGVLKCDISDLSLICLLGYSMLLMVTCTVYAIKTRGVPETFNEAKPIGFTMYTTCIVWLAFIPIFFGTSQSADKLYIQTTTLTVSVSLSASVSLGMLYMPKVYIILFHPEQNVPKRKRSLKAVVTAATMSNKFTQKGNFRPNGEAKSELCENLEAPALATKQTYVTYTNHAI
# Description: as §1
# (§6) Table S2. Activity of 10 µM B16 on human metabotropic glutamate receptors.
# (§7) ^a Data are normalized to the maximum response of cells treated with 1 mM glutamate or 0.1 mM AP4 alone.
# (§8) ^b Percent difference in maximum activity of cells treated with glutamate or AP4 with B16 vehicle versus concurrent treatment with 10 µM B16.
# MGLUR2 = target: T3, MGLUR2 (Homo sapiens, UniProt Q14416); assay: Cell-based mGluR activity assay; conditions: 10 µM B16
# T3 construct: expressed in transfected cells
# Description: as §1, §6, §7, §8
# MGLUR5 = target: T4, MGLUR5 (Homo sapiens, UniProt P41594); assay: Cell-based mGluR activity assay
# T4 construct: expressed in transfected cells
# T4 sequence (P41594 21-1212): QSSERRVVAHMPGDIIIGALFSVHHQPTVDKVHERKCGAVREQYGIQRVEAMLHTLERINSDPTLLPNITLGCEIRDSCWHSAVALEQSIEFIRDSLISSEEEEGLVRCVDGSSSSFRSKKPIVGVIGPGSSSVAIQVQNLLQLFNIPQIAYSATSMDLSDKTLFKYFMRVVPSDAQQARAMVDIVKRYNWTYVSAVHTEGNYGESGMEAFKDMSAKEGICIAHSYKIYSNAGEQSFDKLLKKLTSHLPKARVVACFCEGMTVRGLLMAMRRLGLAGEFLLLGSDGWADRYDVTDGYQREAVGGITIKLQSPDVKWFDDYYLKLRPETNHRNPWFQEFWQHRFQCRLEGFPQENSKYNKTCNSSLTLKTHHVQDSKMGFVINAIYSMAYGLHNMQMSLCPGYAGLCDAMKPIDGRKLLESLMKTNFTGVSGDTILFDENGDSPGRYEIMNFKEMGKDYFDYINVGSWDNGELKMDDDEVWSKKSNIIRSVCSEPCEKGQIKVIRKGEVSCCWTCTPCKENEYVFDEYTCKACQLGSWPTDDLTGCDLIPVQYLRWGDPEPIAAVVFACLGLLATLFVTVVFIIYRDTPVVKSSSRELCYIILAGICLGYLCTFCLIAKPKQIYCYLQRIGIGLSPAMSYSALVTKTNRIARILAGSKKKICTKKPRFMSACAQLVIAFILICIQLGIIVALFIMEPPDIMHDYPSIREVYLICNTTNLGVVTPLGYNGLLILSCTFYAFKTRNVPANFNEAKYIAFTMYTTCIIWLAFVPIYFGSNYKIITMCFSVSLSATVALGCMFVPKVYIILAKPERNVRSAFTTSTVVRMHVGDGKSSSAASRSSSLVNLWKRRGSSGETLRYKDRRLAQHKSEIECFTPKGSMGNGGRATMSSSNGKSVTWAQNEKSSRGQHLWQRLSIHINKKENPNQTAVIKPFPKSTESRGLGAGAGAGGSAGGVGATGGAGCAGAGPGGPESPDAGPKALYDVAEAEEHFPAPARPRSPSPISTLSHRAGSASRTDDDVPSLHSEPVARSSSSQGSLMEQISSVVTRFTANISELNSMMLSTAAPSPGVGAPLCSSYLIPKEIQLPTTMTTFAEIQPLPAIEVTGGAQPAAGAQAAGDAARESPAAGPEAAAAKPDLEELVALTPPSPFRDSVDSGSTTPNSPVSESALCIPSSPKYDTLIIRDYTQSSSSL
# Description: as §1, §6, §7, §8
# MGLUR1a = target: T5, MGLUR1a (Homo sapiens, UniProt Q13255); assay: Cell-based mGluR activity assay; conditions: 10 µM B16
# T5 construct: expressed in transfected cells
# Description: as §1, §6, §7, §8
# MGLUR6 = target: T6, MGLUR6 (Homo sapiens, UniProt O15303); assay: Cell-based mGluR activity assay; conditions: 10 µM B16
# T6 construct: expressed in transfected cells
# T6 sequence (O15303 25-877): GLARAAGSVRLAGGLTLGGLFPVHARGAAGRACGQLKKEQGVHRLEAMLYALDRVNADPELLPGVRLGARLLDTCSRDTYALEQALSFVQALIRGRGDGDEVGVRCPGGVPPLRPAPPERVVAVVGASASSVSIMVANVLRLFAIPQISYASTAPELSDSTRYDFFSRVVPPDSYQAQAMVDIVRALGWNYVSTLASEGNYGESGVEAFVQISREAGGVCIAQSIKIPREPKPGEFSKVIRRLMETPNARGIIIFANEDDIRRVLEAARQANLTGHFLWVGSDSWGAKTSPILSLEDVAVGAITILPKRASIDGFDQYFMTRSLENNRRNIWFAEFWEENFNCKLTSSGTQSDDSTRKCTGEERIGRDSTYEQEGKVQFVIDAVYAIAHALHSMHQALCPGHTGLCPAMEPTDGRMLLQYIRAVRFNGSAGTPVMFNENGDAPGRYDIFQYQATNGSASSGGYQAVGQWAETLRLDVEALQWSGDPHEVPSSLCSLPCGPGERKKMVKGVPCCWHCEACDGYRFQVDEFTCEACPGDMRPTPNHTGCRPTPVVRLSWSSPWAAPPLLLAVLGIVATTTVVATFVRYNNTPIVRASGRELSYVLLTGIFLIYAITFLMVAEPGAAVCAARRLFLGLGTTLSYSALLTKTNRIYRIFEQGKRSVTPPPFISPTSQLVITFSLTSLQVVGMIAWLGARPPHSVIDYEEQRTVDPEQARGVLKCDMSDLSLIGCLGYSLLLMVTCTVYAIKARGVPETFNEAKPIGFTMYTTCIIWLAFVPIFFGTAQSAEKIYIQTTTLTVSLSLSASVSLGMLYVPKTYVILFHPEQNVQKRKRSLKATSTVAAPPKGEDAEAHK
# Description: as §1, §6, §7, §8
# [2] = test system: ver-3(ok891) mutant C. elegans; assay: Pharyngeal pumping assay, compound on high-feeding mutant; format: in vivo; conditions: to C. elegans ver-3 (F59F3.1), homolog of human Flt-3 receptor
# Description: as §3, §4, §5
# flt-3 receptor (CD135) = target: T7, flt-3 receptor (CD135) (Homo sapiens, UniProt P36888); assay: In vitro kinase activity assay, recombinant Flt-3 receptor catalytic domain, srctide phosphorylation (CARNA); format: biochemical
# T7 construct: Flt-3 receptor catalytic domain (amino acids 564–993); purchased CARNA Biosciences (Kobe, Japan)
# Description: as §1, with “Radioligand binding assays for the oxytocin receptor, D4 dopamine receptor, cannabinoid CB2 receptor, and angiotensin type I and II receptors were performed as described previously, as were cell-based activity assays for mGluR 1a, 2, 4, 5, 6, and 8 [60]–[62].” left out
# (§9) Supplementary file pbio.1001712.s002.tif: Figure S2 Dose-dependent inhibitory activity for compounds predicted by SEA to inhibit kinases. (A–B) Varying concentrations of J6 and L10 were incubated with full-length recombinant human PI3KCA and ATP (50 µM) for 5 h and the phosphorylation level of the substrate phosphatidylinositol was measured. […]
# oxytocin receptor = oxytocin receptor (Homo sapiens, UniProt P30559); assay: Radioligand binding assay, 3H-oxytocin binding to the oxytocin receptor
# Description: as §1, §2
# [3] = test system: gnrr-1(ok238) mutant C. elegans; assay: Pharyngeal pumping assay, compound on high-feeding mutant; format: in vivo; conditions: to C. elegans gnrr-1 (F54D7.3), homolog of human Oxtr
# Description: as §3, §4, §5
# androgen receptor = androgen receptor (Homo sapiens, UniProt P10275); assay: Radioligand binding assay, 3H-Mibolerone binding to the androgen receptor (CEREP)
# Description: as §1, with “[60]-[62]. Supplementary file pbio.1001712.s003.tif: Figure S3 Dose-response relationships for compounds that bind nuclear hormone receptors. […]” for “[60]–[62].”
# dopamine receptor D4 = dopamine receptor D4 (Homo sapiens, UniProt P21917); assay: Radioligand binding assay, 3H-risperidone binding to the dopamine D4 receptor
# Description: as §1, §2
# PPAR-γ = target: T8, PPAR-γ (Homo sapiens, UniProt P37231); assay: Radioligand binding assay, 3H-Rosiglitazone binding to PPAR-γ (CEREP)
# T8 construct: CEREP, Inc. (assay run by the contract laboratory)
# Description: as §1
# Supplementary file pbio.1001712.s003.tif: Figure S3 Dose-response relationships for compounds that bind nuclear hormone receptors. […]
# PI3K p110α = target: T9, PI3K p110α (Homo sapiens, UniProt P42336); assay: In vitro kinase activity assay, recombinant PI3KCA, phosphatidylinositol phosphorylation (CARNA); format: biochemical; conditions: marked with footnote d in Figure 2; 50 µM ATP, 5 h
# T9 construct: full-length recombinant human PI3KCA; purchased CARNA Biosciences (Kobe, Japan)
# T9 sequence (P42336 whole entry): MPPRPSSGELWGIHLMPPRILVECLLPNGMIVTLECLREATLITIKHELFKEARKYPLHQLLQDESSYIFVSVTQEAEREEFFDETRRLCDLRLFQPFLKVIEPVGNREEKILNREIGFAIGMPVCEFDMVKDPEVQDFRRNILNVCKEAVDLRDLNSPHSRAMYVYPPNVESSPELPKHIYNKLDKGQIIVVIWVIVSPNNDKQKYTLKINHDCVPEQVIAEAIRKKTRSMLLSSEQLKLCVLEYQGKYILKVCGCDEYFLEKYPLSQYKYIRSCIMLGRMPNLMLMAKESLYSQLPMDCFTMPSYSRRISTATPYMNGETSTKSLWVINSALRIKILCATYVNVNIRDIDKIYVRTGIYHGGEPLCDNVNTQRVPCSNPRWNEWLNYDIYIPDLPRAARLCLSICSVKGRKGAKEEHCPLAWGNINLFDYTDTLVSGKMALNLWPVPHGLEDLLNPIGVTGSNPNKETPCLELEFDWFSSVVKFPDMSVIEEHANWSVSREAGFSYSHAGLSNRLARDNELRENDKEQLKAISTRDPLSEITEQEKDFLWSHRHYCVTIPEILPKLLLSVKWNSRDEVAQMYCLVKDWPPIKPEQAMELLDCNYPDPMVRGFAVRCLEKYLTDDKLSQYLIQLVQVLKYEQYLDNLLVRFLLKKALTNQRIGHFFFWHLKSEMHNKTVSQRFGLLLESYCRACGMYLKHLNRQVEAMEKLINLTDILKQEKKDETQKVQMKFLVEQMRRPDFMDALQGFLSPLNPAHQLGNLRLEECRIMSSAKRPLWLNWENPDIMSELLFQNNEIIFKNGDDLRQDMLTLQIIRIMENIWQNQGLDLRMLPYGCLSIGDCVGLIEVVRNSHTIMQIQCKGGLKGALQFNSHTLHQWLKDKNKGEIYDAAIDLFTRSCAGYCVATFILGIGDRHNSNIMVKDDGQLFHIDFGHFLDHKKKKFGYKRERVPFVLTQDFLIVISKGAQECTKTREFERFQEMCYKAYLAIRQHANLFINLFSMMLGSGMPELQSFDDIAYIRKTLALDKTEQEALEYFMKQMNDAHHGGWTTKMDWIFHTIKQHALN
# T9 sequence (P27986 whole entry partner): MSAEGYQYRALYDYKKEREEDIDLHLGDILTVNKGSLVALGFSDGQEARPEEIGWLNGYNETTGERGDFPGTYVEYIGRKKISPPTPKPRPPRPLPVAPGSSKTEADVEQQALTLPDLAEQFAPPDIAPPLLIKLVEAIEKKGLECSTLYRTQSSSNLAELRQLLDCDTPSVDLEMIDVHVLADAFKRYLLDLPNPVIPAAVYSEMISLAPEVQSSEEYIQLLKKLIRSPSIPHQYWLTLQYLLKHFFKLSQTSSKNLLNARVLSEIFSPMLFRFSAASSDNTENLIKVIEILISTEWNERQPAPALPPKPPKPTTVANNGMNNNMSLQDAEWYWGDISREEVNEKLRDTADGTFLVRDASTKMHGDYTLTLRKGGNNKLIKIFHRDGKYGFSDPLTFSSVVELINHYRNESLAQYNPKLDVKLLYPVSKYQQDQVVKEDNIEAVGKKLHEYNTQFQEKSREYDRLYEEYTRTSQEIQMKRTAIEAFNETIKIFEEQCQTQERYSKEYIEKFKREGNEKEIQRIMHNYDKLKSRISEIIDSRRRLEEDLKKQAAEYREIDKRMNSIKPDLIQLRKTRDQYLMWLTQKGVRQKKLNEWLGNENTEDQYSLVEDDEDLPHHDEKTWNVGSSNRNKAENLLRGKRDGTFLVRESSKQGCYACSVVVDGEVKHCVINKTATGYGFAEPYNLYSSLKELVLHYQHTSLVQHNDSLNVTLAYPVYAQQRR
# Description: as §1, with “Radioligand binding assays for the oxytocin receptor, D4 dopamine receptor, cannabinoid CB2 receptor, and angiotensin type I and II receptors were performed as described previously, as were cell-based activity assays for mGluR 1a, 2, 4, 5, 6, and 8 [60]–[62].” left out
# as §9
# [4] = normalized to the maximum response of cells treated with 1 mM glutamate or 0.1 mM AP4 alone
# [5] = percent difference in maximum activity of cells treated with glutamate or AP4 with vehicle versus B16
# [6] = wild-type, serial 3-fold dilutions
structure (smiles),measurement,setting,value
Cc1cc(C)c2c(N)c(C(=O)Nc3ccccn3)sc2n1 [B16],% agonism,MGLUR8; [4],-3%
same,% inhibition,MGLUR8; [5],49%
same,Nile Red staining,C. elegans,decreased
same,Ki,mglur-8,9800 nM
same,Pharmacological relationship,[1],antagonist
same,increase in pharyngeal pumping,wild-type C. elegans,7%–12%
same,exposure time after which the feeding elevating effect was notable,wild-type C. elegans,≤ 1 h
same,effect on the pharyngeal pumping rate,wild-type C. elegans; wild-type,increased
same,% agonism,MGLUR4; [4],-8%
same,inhibition at 10 µM,MGLUR4; [5],4%
same,% agonism,MGLUR2; [4],0%
same,inhibition at 10 µM,MGLUR2; [5],12%
same,% agonism,"MGLUR5; 10 µM B16, normalized to the maximum response of cells treated with 1 mM glutamate or 0.1 mM AP4 alone",-14%
same,inhibition at 10 µM,"MGLUR5; 10 µM B16, percent difference in maximum activity of cells treated with glutamate or AP4 with vehicle versus B16",11%
same,Ki,MGLUR5; Figure 2,> 30000 nM
same,% agonism,MGLUR1a; [4],-4%
same,inhibition at 10 µM,MGLUR1a; [5],24%
same,% agonism,MGLUR6; [4],13%
same,inhibition at 10 µM,MGLUR6; [5],-17%
Cc1sc(NC(=O)c2ccccc2Br)c(C(N)=O)c1C [D20],Nile Red staining,C. elegans,decreased
same,Pharmacological relationship,[2],antagonist
same,increase in pharyngeal pumping,wild-type C. elegans,7%–12%
same,exposure time after which the feeding elevating effect was notable,wild-type C. elegans,≤ 1 h
same,EC50,wild-type C. elegans; [6],600 nM
same,effect on the pharyngeal pumping rate,wild-type C. elegans; wild-type,increased
same,Ki,"flt-3 receptor (CD135); marked with footnote d in Figure 2, 100 µM ATP, 1 h",169 nM
COc1ccc(N(CC(=O)NCc2ccco2)S(=O)(=O)c2ccccc2)cc1Cl [F15],Ki,oxytocin receptor,1800 nM
same,Nile Red staining,C. elegans,decreased
same,Pharmacological relationship,[3],antagonist
same,increase in pharyngeal pumping,wild-type C. elegans,7%–12%
same,exposure time after which the feeding elevating effect was notable,wild-type C. elegans,≤ 1 h
same,EC50,wild-type C. elegans; [6],400 nM
same,effect on the pharyngeal pumping rate,wild-type C. elegans; wild-type,increased
CC12C(=O)N(c3ccc(Cl)c(Cl)c3)C(=O)C1C1C=CC2C1 (centres unmarked) [G6],Ki,androgen receptor,8.6 nM
O=C(CN1CCN(c2ccccc2)CC1)Nc1cc(C(F)(F)F)ccc1Cl [G7],Ki,dopamine receptor D4,1900 nM
O=C(Nc1ccccc1C(=O)O)c1ccc(Br)c(S(=O)(=O)N2CCCCC2)c1 [I10],Ki,PPAR-γ,1300 nM
Cc1nc(N2CCOCC2)c2oc3ccccc3c2n1 [J6],Ki,PI3K p110α,4600 nM
CC1CCc2c(sc(NC(=O)c3cccs3)c2C(N)=O)C1 (centres unmarked) [K9],effect on feeding rate,wild-type C. elegans; [6],dose-dependent increase
same,activity on the predicted mammalian target Flt-3 kinase in vitro,flt-3 receptor (CD135); Table S1 (not readable),fail to modulate
O=C1NC(=O)/C(=C\c2ccc(-c3cccc(Br)c3)o2)S1 [L10],Ki,PI3K p110α,2900 nM
"CC[C@H](NC(=O)c1c(C)c(-c2ccccc2)nc2ccccc12)c1ccccc1 [SB222200, reference compound]",effect on feeding,"wild-type C. elegans; wild-type, 200 nM",increased feeding
